The term IC50 denotes the concentration at which inhibition is half-maximal. One may read the Kd as the concentration at which binding is half-saturated. Higher therefore signals lower affinity.

Nine compounds from patent US20220324835A1 (Nurix Therapeutics, Inc., priority 2018, published 2022) can be followed below.

The target of test [1] is T1, Cbl-b (Homo sapiens, UniProt Q13191). Nature of the test: Cbl-b inhibition assay (Cbl-b activity assay, FRET, Biological Example 1; 100 mM NaCl, 60 nM Src kinase). The test is classed as biochemical. The note with it: upper bound stated in text lists; read-out: IC50 values in the Cbl-b inhibition assay of Biological Example 1. In a few lines: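 Inhibition is read as loss of FRET signal. The signal arises when Src-phosphorylated, N-terminal biotinylated Avi-Cbl-b (captured by streptavidin-terbium) binds UbcH5B carrying covalently linked Bodipy-Fluorescein-tagged ubiquitin.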

Test [2] addresses T1, Cbl-b. Kind of test: Cbl-b activity assay (Cbl-b inhibition assay), TR-FRET of Cbl-b interaction with UbcH5B-Ub. As to conditions: assay buffer with 100 mM NaCl, 60 nM Src kinase; read-out: Cbl-b activity IC50. The class given is biochemical. In a few lines: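 UbcH5B (C85K) conjugated to N-terminally Bodipy-Fluorescein-labeled ubiquitin served as the fluorescent partner. After compound preincubation, Src kinase (60 nM) with 1 mM ATP and 5 mM MgCl2 (final) was added for 1.5 h, followed by a further 1 h incubation. Some values were obtained with 50 mM NaCl and 30 nM Src.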
(In TR-FRET formats the signal depends on donor and acceptor labels being close together.)

In test [3] the target is Cbl-b (residues 36-427) (Homo sapiens, UniProt Q13191). Kind of test: Cbl-b binding assay (SPR, Biacore T200). As to conditions: 20° C., 1:1 binding model. A digest of the protocol: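 Steps: capture protein on NeutrAvidin surface; inject compound dilutions (8 or 10 points from 100 or 50 μM) 50 s; allow 90-180 s dissociation; regenerate 20 s with 0.3 M NaCl. Runs at 20° C in HEPES pH 7.5/100 mM NaCl/2% DMSO; 1:1 fitting.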
(In general: SPR reads the build-up and loss of mass on a sensor chip optically.)

T1 sequence (Q13191 36-427): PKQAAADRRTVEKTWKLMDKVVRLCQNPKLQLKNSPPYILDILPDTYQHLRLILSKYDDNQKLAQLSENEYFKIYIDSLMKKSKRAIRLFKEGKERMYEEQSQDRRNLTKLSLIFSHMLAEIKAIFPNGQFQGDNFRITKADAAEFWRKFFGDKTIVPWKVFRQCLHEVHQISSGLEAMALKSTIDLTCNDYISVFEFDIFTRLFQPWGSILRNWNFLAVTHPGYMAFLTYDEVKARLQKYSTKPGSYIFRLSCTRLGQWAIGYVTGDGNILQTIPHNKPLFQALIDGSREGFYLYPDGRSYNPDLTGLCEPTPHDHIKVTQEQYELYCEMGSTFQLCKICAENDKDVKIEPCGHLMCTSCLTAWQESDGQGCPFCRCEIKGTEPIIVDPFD
Cbl-b (residues 36-427), sequence (Q13191 36-427): as above

For the compound `C[C@@H](Cc1nncn1C)c1cc(F)cc(N2Cc3c(cccc3C(F)(F)F)C2=O)c1` [Compound 281b, 2-[3-Fluoro-5-[(1S)-1-methyl-2-(4-methyl-1,2,4-triazol-3-yl)ethyl]phenyl]-4-(trifluoromethyl)isoindolin-1-one], the IC50 is at most 10000 nM in test [1] and 3000 to 10000 nM in test [2]. This compound also had a Kd in test [3] of 100 to 300 nM.
On to `CC(c1cccc(NC(=O)c2ccc(CO)c(C3CC3)n2)c1)C(F)(F)c1nncn1C` (stereo not drawn) [Compound 287, 6-cyclopropyl-N-(3-(1,1-difluoro-1-(4-methyl-4H-1,2,4-triazol-3-yl)propan-2-yl)phenyl)-5-(hydroxymethyl)picolinamide], for which the IC50 in test [1] was at most 500 nM; in test [2], 100 to 300 nM. This compound also returned a Kd in test [3] of 1000 to 3000 nM.
On to `CC(c1cccc(N2Cc3c(cccc3C(F)(F)F)C2=O)c1)C(F)(F)c1nncn1C` (stereo not drawn) [Compound 294, 2-(3-(1,1-difluoro-1-(4-methyl-4H-1,2,4-triazol-3-yl)propan-2-yl)phenyl)-4-(trifluoromethyl)isoindolin-1-one], for which the IC50 in test [1] was at most 500 nM; in test [2], 301 to 1000 nM. Also, the Kd in test [3] was below 100 nM.
The matching figures for `Cn1cnnc1C(F)(F)C(C)(O)c1cccc(N2Cc3c(cccc3C(F)(F)F)C2=O)c1` (stereo not drawn) [Compound 295, 2-(3-(1,1-difluoro-2-hydroxy-1-(4-methyl-4H-1,2,4-triazol-3-yl)propan-2-yl)phenyl)-4-(trifluoromethyl)isoindolin-1-one]: at most 10000 nM, 3000 to 10000 nM and 1000 to 3000 nM.
In the same order, the values of `Cn1cnnc1C[C@@](C)(F)c1cccc(N2Cc3c(cccc3C(F)(F)F)C2=O)c1` [Compound 298a, (R)-2-(3-(2-fluoro-1-(4-methyl-4H-1,2,4-triazol-3-yl)propan-2-yl)phenyl)-4-(trifluoromethyl)isoindolin-1-one] are at most 10000 nM, 1000 to 3000 nM and 3000 to 10000 nM.
For `C[C@H](Cc1nncn1C)c1ccnc(NC(=O)c2ccc3ccccc3n2)c1` [Compound 303, (R)-N-(4-(1-(4-methyl-4H-1,2,4-triazol-3-yl)propan-2-yl)pyridin-2-yl)quinoline-2-carboxamide], the values for the IC50 in test [1] and in test [2] were at most 1000 nM and 301 to 1000 nM, respectively. Moreover, in test [3], the dissociation constant Kd is 3000 to 10000 nM.
The matching figures for `C[C@@H](Cc1nncn1C)c1ccnc(N2Cc3c(cccc3C(F)(F)F)C2=O)c1` [Compound 304a, (S)-2-(4-(1-(4-methyl-4H-1,2,4-triazol-3-yl)propan-2-yl)pyridin-2-yl)-4-(trifluoromethyl)isoindolin-1-one]: at most 10000 nM, 3000 to 10000 nM and above 10000 nM.
In the same order, the values of `C[C@H](Cc1nncn1C)c1cccc(N2Cc3c(cc(CN4CC[C@H](O)C4)cc3C(F)(F)F)C2=O)c1` [Compound 394, 6-(((S)-3-hydroxypyrrolidin-1-yl)methyl)-2-(3-((R)-1-(4-methyl-4H-1,2,4-triazol-3-yl)propan-2-yl)phenyl)-4-(trifluoromethyl)isoindolin-1-one] are at most 100 nM, below 100 nM and below 100 nM.
For `CCCOc1cc([C@H](C)Cc2nncn2C)cc(N2Cc3c(cccc3C(F)(F)F)C2=O)n1` [Example 688, (R)-2-(4-(1-(4-methyl-4H-1,2,4-triazol-3-yl)propan-2-yl)-6-propoxy-pyridin-2-yl)-4-(trifluoromethyl)isoindolin-1-one], the IC50 in test [1] is at most 1000 nM; in test [2], 301 to 1000 nM. In test [3], this compound came in with an equilibrium dissociation constant (Kd) of 1000 to 3000 nM.
